{"source": "patent US12534501B2", "about": "“Targeting deregulated Wnt signaling in cancer using stabilized alpha-helices of BCL-9” (Dana-Farber Cancer Institute, Inc., priority 2011, dated 2026)", "key": {"[1]": {"system": "multiple myeloma primary tumors (MMPT)", "assay": "Cell proliferation, [3H]thymidine uptake", "assay_type": "cell-based, human", "conditions": "primary MM cells; 5 μM", "from_the_text": "(§1) Bone marrow specimens were obtained from patients with MM in accordance with Dana-Farber Cancer Institute Review Board approval and informed consent performed in compliance with the Declaration of Helsinki. Primary CD138+ plasma cells were purified using magnetic beads as described (Sukhdeo, K. et al. Proc Natl Acad Sci USA 104, 7516-21 (2007)). CRC primary tumor samples were obtained from the Brigham and Women's Hospital in accordance with the policies of their Institutional Review Board. To generate sufficient CRC primary tumor cells for experimentation, the primary tumors were first expanded subcutaneously in NOD/SCID mice (Jackson Laboratory). After the tumors reached 2 cm in diameter, mice were sacrificed according to institutional guidelines and subcutaneous tumor xenografts were minced with a scalpel and digested by incubation with collagenase IV (Worthington Biomedical Corporation) and 0.01% DNase I (Sigma-Aldrich) at 37° C. for 30 min, followed by additional mechanical disaggregation using a Stomacher device (Seward Laboratory Systems Inc.). […]\n(§2) Cell proliferation assays were performed as described (Sukhdeo, K. et al. Proc Natl Acad Sci USA 104, 7516-21 (2007)). Cell viability was measured using the CellTiter-Glo assay (Promega) according to the manufacturer's instructions. Apoptosis was evaluated by activated caspase-3 and PARP western blotting. […]"}, "[2]": {"system": "colorectal primary tumors (CCPT)", "assay": "Cell proliferation, [3H]thymidine uptake", "assay_type": "cell-based, human", "conditions": "primary CRC cells; 5 μM, 24 h", "from_the_text": "as §1, §2"}, "[3]": {"system": "caspase-3 or PARP", "assay": "Apoptosis by activated caspase-3 and PARP western blotting", "assay_type": "cell-based", "conditions": "western analysis", "method": "(§3) Cell proliferation assays were performed as described (Sukhdeo, K. et al. Proc Natl Acad Sci USA 104, 7516-21 (2007)). Cell viability was measured using the CellTiter-Glo assay (Promega) according to the manufacturer's instructions. Apoptosis was evaluated by activated caspase-3 and PARP western blotting. See results in FIG. 3A-FIG. 3F, FIG. 13, and FIG. 20."}, "[4]": {"system": "HCT116, HCT116DO20 and HCT116KO58 cells", "assay": "Cell proliferation of cultured colon cancer cells", "assay_type": "cell-based", "conditions": "HCT116 and derivatives, not dependent on Wnt/β-catenin activity", "method": "as §3"}, "[5]": {"system": "LS174T cell line", "assay": "Cell proliferation of cultured colon cancer cells", "assay_type": "cell-based", "conditions": "does not express BCL9", "method": "as §3"}, "[6]": {"system": "CRC cell lines expressing BCL9", "assay": "Cell proliferation of cultured colon cancer cells", "assay_type": "cell-based", "method": "as §3"}, "[7]": {"system": "β-catenin/BCL9-driven transcription in HCT116 cells", "assay": "TOP-FLASH dual luciferase assay with pcDNA-BCL9 transfection", "assay_type": "cell-based", "conditions": "HCT116, TOP-FLASH and pcDNA-BCL9, peptides 5 μM, 24 h"}, "[8]": {"system": "Wnt target genes in DLD1 colon cancer cell line", "assay": "Affymetrix gene expression profiling / GSEA and qRT-PCR validation", "assay_type": "cell-based", "method": "RNA from SAH-BCL9B and vehicle (0.1% DMSO)-treated cells were run on an Affymetrix U133A 2.0 array chip as described (Mollering et al, Nature 462, 182-8 (2009). Statistical analyses were performed in R (http://www.r-project.org). The array data were normalized with rma method (Bolstad, B. M., et al. Bioinformatics 19, 185-93 (2003)) as implemented in the Affy package (http://www.bioconductor.org/packages/2.6/bioc/html/affy.html) and differential expression calculated with empirical Bayes shrinkage of the standard errors toward a common value with LIMMA (http://www.bioconductor.org/packages/2.6/bioc/html/limma.html) (McCarthy, D. J. & Smyth, G. K. Bioinformatics 25, 765-71 (2009); Smyth, G. K. Stat Appl Genet Mol Biol 3, Article3 (2004)). Gene set enrichment analysis was performed using GSEA software (version 2.06) and mSigDB (version 2.5) (Subramanian, A. et al. Proc Natl Acad Sci USA 102, 15545-50 (2005)).\nTo further investigate the specificity of SAH-BCL9B in blocking Wnt transcriptional activity, comparative genome-wide expression analyses of Wnt target genes in the DLD1 colon cancer cell line, for which a Wnt transcription pathway signature has been described (L. G. Van der Flier et al., Gastroenterology 132, 628 (2007)), was performed. RNA from triplicate SAH-BCL9B- and vehicle-treated DLD1 samples (10 μM each for 12 hours) was isolated for gene expression profiling analyses. Affymetrix Human U133 Plus 2.0 arrays were processed using the function of the affy Bioconductor package (URL http://www.R-project.org.). Gene sets were compiled from Van der Flier et al. and gene set enrichment and statistical analyses performed using GSEA software (http://www.broad.mit.edu/GSEA) and a two-tailed t-test, respectively. Microarray data has been deposited in the Gene Expression Omnibus (http://www.ncbi.nlm.nih.gov/geo) and comply with MIAME annotation standards. […]"}, "[9]": {"system": "Colo320 cells", "assay": "Combination with 5-fluorouracil, 3H-thymidine incorporation", "assay_type": "cell-based", "conditions": "Colo320, increasing concentrations of 5-FU", "method": "To test whether the anti-proliferative effect of SAH-BCL9B could synergize with other agents commonly used to treat MM or CRC, combination treatment studies were conducted. Indeed, the cytotoxic effects of 5-fluorouracil on CRC cells and of doxorubicin on MM cells were enhanced by SAH-BCL9B, but not by vehicle or the mutant peptide. See results in FIG. 21."}}, "note": "Numbered stars: 1 amine (or outer) side, 2 acyl side, 3 side chain; on linkers, the order of the positions; unused ones are H or OH. Bridge positions count the residues as written; N and C are the ends. Square brackets hold non-standard residues; d marks the D form. Peptide text beside a SMILES is read from it. ξ: configuration not given here. ξαMeNle(6-ylidene) = CC(CCCC=[*:3])(N[*:1])C(=O)[*:2]; Nle = CCCC[C@H](N)C(=O)O", "data": [{"smiles": "CCCC[C@H](NC(=O)[C@H](CCCNC(=N)N)NC(=O)[C@H](CCC(N)=O)NC(=O)[C@@H](NC(=O)C1(C)CCCC=CCCCC(C)(NC(=O)[C@H](CC(C)C)NC(=O)[C@H](CO)NC(=O)[C@H](CCCNC(=N)N)NC(=O)[C@H](CCC(=O)O)NC(=O)[C@H](CCCNC(=N)N)NC(=O)[C@H](Cc2c[nH]cn2)NC(=O)[C@H](CCC(=O)O)NC(=O)[C@H](CC(C)C)NC(=O)[C@H](CCC(N)=O)NC(=O)[C@H](CCC(=O)O)NC(=O)[C@H](CCC(N)=O)NC(=O)[C@H](CO)NC(=O)[C@H](CC(C)C)NC(C)=O)C(=O)N[C@@H]([C@@H](C)O)C(=O)N[C@@H](CC(C)C)C(=O)N[C@@H](CCCNC(=N)N)C(=O)N1)[C@@H](C)CC)C(=O)N[C@@H](CC(C)C)C(=O)N[C@@H](Cc1ccccc1)C(N)=O", "note": "(some centres unmarked) [SAH-BCL9B] (Ac-LSQEQLEHRERSL[ξαMeNle(6-ylidene)]TLR[ξαMeNle(6-ylidene)]IQR[Nle]LF-NH2; staple 14-18)", "values": [{"measurement": "proliferation", "setting": "[1]", "value": "reduced the proliferation"}, {"measurement": "proliferation", "setting": "[2]", "value": "reduced the proliferation"}, {"measurement": "caspase-3 or PARP activation", "setting": "[3]", "value": "did not activate caspase-3 or PARP"}, {"measurement": "proliferation", "setting": "[4]", "value": "no sensitivity"}, {"measurement": "proliferation", "setting": "[5]", "value": "no response"}, {"measurement": "proliferation", "setting": "[6]", "value": "significantly reduced the proliferation"}, {"measurement": "suppression of reporter activity on increasing BCL9 expression", "setting": "[7]", "value": "dose-responsively reversed"}, {"measurement": "VEGF-A expression", "setting": "[8]; DLD1", "value": "downregulated"}, {"measurement": "Axin2 expression", "setting": "[8]; DLD1, 10 μM, 12 hours", "value": "among the most down-regulated genes"}, {"measurement": "GSEA correlation of down-regulated genes with dominant-negative TCF1 and TCF4", "setting": "[8]; DLD1, 10 μM, 12 hours, adenoma and carcinoma signatures", "value": "strong and statistically significant correlation"}, {"measurement": "enhancement of anti-tumor activity of 5-fluorouracil", "setting": "[9]", "value": "significantly enhanced the anti-tumor activity"}]}]}
